Converted amounts (≈) assume the structure as drawn. Where a SMILES comes first, the peptide text is derived from it. Where no end group is shown, it is not given here.
Experiments:
[1] = tested on: Pseudomonas aeruginosa (ATCC 27853); format: cell-based
Experimental: (§1) The antimicrobial activity of synthetic peptides was determined using the minimal inhibitory concentration (MIC) and the minimal bactericidal concentration […] performed by the microdilution method in a 96 well plate. Gram-positive bacteria, Staphylococcus aureus (NCTC 10788), methicillin-resistant Staphylococcus aureus (MRSA, NCTC 12493), Enterococcus faecalis (NCTC12697), and Gram-negative bacteria, Escherichia coli (NCTC 10418), Pseudomonas aeruginosa (ATCC 27853), Klebsiella pneumoniae (ATCC 43816) and the pathogenic yeast Candida albicans (NCYC 1467). All bacteria were cultured in MHB and C. albicans was cultured in YPD broth. Norfloxacin and amphotericin B were used as positive controls for bacteria and yeast, respectively.

[2] = tested on: Staphylococcus aureus (NCTC 10788); format: cell-based
Experimental: as §1

[3] = tested on: Candida albicans (NCYC 1467); format: cell-based
Experimental: as §1

[4] = tested on: Enterococcus faecalis (NCTC12697); format: cell-based
Experimental: as §1

[5] = tested on: horse erythrocytes
Experimental: Horse erythrocytes (TCS Biosciences Ltd., Buckingham, UK) were subjected to the hemolysis of all synthetic peptides as described previously [35]. Briefly, the erythrocytes were washed and resuspended by PBS to achieve a 4% suspension. The test peptide solutions were transferred into the aforementioned suspension and kept at a constant 37 °C for 2 h, while Triton X-100 (Sigma-Aldrich, St. Louis, MO, USA) was employed to replace the peptide solution for establishing the positive control. The supernatants after incubation were measured at 470 nm.

[6] = tested on: HMEC-1 cells; details: for drop in cell viability of HMEC-1 cells: 100 µM
Experimental: The cytotoxicity of BR2GK and its derivatives were determined by hemolysis assay and MTT assay on the dermal microvascular endothelium cell line, HMEC-1 (ATCC CRL-3243).
MTT assays were conducted as outlined previously [35]. Ten thousand cells were seeded in each well of a 96-well plate. Cells were treated with different peptide concentrations for 24 h. Triton (0.1%) X-100 was used as a positive control.

[7] = tested on: Escherichia coli (NCTC 10418); format: cell-based
Experimental: as §1

[8] = tested on: Klebsiella pneumoniae (ATCC 43816); format: cell-based
Experimental: as §1

[9] = tested on: methicillin-resistant Staphylococcus aureus (MRSA, NCTC 12493); format: cell-based
Experimental: as §1

Row | Compound | MIC P. aeruginosa [1] | MBC S. aureus [2] | MIC S. aureus [2] | MIC C. albicans [3] | MBC E. faecalis [4] | MIC E. faecalis [4] | hemolysis of horse erythrocytes at 256 µM [5] | cytotoxicity on HMEC-1 cells at 100 µM [6] | MBC E. coli [7] | MIC E. coli [7] | MBC P. aeruginosa [1] | MBC K. pneumoniae [8] | MIC K. pneumoniae [8] | MBC MRSA [9] | MIC MRSA [9] | MBC C. albicans [3] | drop in cell viability of HMEC-1 cells [6]
1 | CC(C)C[C@H](NC(=O)[C@H](CCC(N)=O)NC(=O)[C@H](CCC(N)=O)NC(=O)[C@H](C)NC(=O)CNC(=O)[C@H](C)NC(=O)[C@H](CCCCN)NC(=O)CNC(=O)[C@@H](NC(=O)[C@H](CCC(N)=O)NC(=O)[C@H](CCCCN)NC(=O)[C@H](CC(C)C)NC(=O)[C@H](CC(C)C)NC(=O)[C@H](Cc1ccc(O)cc1)NC(=O)[C@H](CCCCN)NC(=O)[C@H](C)NC(=O)CNC(=O)[C@H](C)NC(=O)[C@H](CCCCN)NC(=O)[C@H](Cc1ccccc1)NC(=O)[C@H](CC(C)C)NC(=O)[C@H](CO)NC(=O)[C@H](CO)NC(=O)[C@H](Cc1ccccc1)NC(=O)CN)C(C)C)C(=O)N[C@@H](C)C(=O)N[C@H]1CSSC[C@@H](C(=O)O)NC(=O)[C@H](CC(N)=O)NC(=O)[C@H](CC(N)=O)NC(=O)[C@H](C)NC(=O)[C@H](C)NC(=O)[C@H](CCCCN)NC1=O [BR2GK] (HELM PEPTIDE1{G.F.S.S.L.F.K.A.G.A.K.Y.L.L.K.Q.V.G.K.A.G.A.Q.Q.L.A.C.K.A.A.N.N.C}$PEPTIDE1,PEPTIDE1,27:R3-33:R3$$$V2.0) | > 512 µM | 256 µM (≈ 867 µg/mL) | 64 µM (≈ 217 µg/mL) | 256 µM (≈ 867 µg/mL) | 256 µM (≈ 867 µg/mL) | 64 µM (≈ 217 µg/mL) | more than 40% | significant cytotoxicity | – | – | – | – | – | – | – | – | –
2 | GFSSLFKAGAKYLPKQVGKAGAQQL-NH2 [[P^14]BR2GK(1-25)a] | > 512 µM | > 512 µM | 512 µM | – | – | – | – | – | > 512 µM | > 512 µM | > 512 µM | > 512 µM | > 512 µM | > 512 µM | > 512 µM | – | –
3 | GFSSLFKAGAKYLRKQVGKAGAQQL-NH2 [[R^14]BR2GK(1-25)a] | 16 µM | 32 µM | 16 µM | 64 µM | 32 µM | 16 µM | – | – | 16 µM | 8 µM | 32 µM | 256 µM | 128 µM | 128 µM | 64 µM | 128 µM | around 15%
4 | GFSSLFKAGAKYLAKQVGKAGAQQL-NH2 [[A^14]BR2GK(1-25)a] | 32 µM | 16 µM | 8 µM | 16 µM | 16 µM | 8 µM | – | – | 32 µM | 8 µM | 128 µM | 256 µM | 128 µM | 64 µM | 16 µM | 32 µM | –
5 | GFSSLFKAGAKYLLKQVGKAGAQQL-NH2 [BR2GK(1-25)a] | 8 µM | 8 µM | 4 µM | 4 µM | 16 µM | 4 µM | around 20% | – | 8 µM | 4 µM | 32 µM | 32 µM | 16 µM | 16 µM | 4 µM | 16 µM | around 15%
6 | GFSSLFKAGAKYLKKQVGKAGAQQL-NH2 [[K^14]BR2GK(1-25)a] | 16 µM | 32 µM | 16 µM | 64 µM | 64 µM | 16 µM | – | – | 32 µM | 8 µM | 64 µM | 256 µM | 128 µM | 128 µM | 64 µM | 128 µM | around 15%
